According to patent publication US8354451B2, “Treatment of microbial infections with compounds that inhibit 4-hydroxyphenylpyruvate dioxygenase” (The UWM Research Foundation, Inc., priority 2009, dated 2013):

How the values were obtained:
Format in all cases: cell-based, Burkholderia cenocepacia
B. cenocepacia MH1J = assay: Pigment (pyomelanin) production, supernatant OD597; conditions: 24 h culture
Protocol: FIG. 1. NTBC decreases pigment production in B. cenocepacia. B. cenocepacia strains C5424 and MH1J were cultured in presence or absence of NTBC in flasks during 24 h. An aliquot of this culture was used to take the picture in A. To quantify pigment production, 1 ml of culture was centrifuged at 14,000 rpm by 5 min to pellet bacteria. The pigment in the supernatant was quantified at an OD597 nm. The graphic (B) was generated with the results of two independent experiments. Values represent the mean±SD of two independent experiments. ***, p<0.001, Mock (untreated) versus treated with 10 and 100 μM of NTBC.
To test the ability of NTBC 2-[2-nitro-4-(trifluoromethyl)benzoyl]-1,3-cyclohexanedione (NTBC) to decrease pigment production by Burkholderia cenocepacia strains, two strains with the ability to produce pigment were used: (i) the previously described B. cenocepacia C5424, and (ii) B. cenocepacia MH1J, strain with susceptibility to gentamicin.
Bacteria were grown in 10 ml of Luria-Bertani (LB) broth at 37° C. with shaking, using 250 mL-flasks. B. cenocepacia C5424 produced significant pigment at 24 h of culture and MH1J required 48 h to form high pigment production. To quantify the pigment produced by both strains a 1 mL culture was taken at 24 hrs of incubation and the bacteria were pelleted by centrifugation at 14,000 r.p.m. for 5 min. […]

[1] = test system: B. cenocepacia C5424 and MH1J; assay: Growth rate, BIOSCREEN growth curve analysis; conditions: 10 μM and 100 μM NTBC, OD600 over 24 h
Protocol: FIG. 2. Effect of NTBC on growth and viability of B. cenocepacia. B. cenocepacia C5424 (upper graph) and MH1J (lower graph) were cultured in 300 ml of LB by triplicates. Cultures were started at an OD600 of 0.1 and OD600 readings were taken every 30 min over 24 h using the BIOSCREEN® system.
To assess growth rate, overnight cultures were inoculated into fresh medium with a starting optical density at 600 (OD600) of 0.1. Growth rates were determined in 100-well microtiter plates by use of a BIOSCREEN® C automated microbiology growth curve analysis system (MTX Lab Systems, Inc., Vienna, Va.) under high-amplitude shaking conditions.
(§1) B. cenocepacia C5424 and MH1J were cultured in the presence of 10 μM and 100 μM NTBC and assayed for growth rates using the BIOSCREEN® system (FIG. 2). Bacterial viability was examined under similar treatment conditions by fluorescence microscopy using the LIVE/DEAD® kit (Molecular Probes, Invitrogen).

[2] = test system: B. cenocepacia C5424 and MH1J; assay: Bacterial viability, LIVE/DEAD fluorescence microscopy; conditions: 10 μM and 100 μM NTBC, 24 h culture
Protocol: Viability was tested by the LIVE/DEAD® method (Molecular probes, Invitrogen). 1 mL of bacterial culture was collected at 24 h, washed twice with phosphate buffered saline (PBS), and the pellet resuspended in 1 mL of Dubecco's modified Eagle's medium (DMEM) supplemented with 10% fetal bovine serum (FBS). Bacteria were incubated for 15 min at RT in the dark, 5 mL of the culture was used for fluorescence microscopy. Images were acquired using a QIMAGING® (Burnaby, British Columbia, Canada) cooled charge coupled-device camera on an Axioscope 2 (Carl Zeiss, Thornwood, N.Y.) microscope with an X100/1.3 numerical aperture Plan-Neofluor objective and a 50-W mercury arc lamp. Images were digitally processed using the Northern Eclipse version 6.0 imaging analysis software (Empix Imaging, Mississauga, Ontario, Canada).
as §1

## O=C1CCCC(=O)C1C(=O)c1ccc(C(F)(F)F)cc1[N+](=O)[O-] [NTBC, 2-(2-nitro-4-trifluoromethylbenzoyl)-1,3-cyclohexanedione]
B. cenocepacia MH1J; 10 μM NTBC
  pigment production relative to untreated MH1J: 31.53±3.08%
B. cenocepacia MH1J; 100 μM NTBC
  pigment production relative to untreated MH1J: 36.41±1.80%
[1]
  effect on growth rate: does not affect growth rate
[2]
  effect on viability: does not affect growth rate or viability
